# From article PMC6381106 (Scientific Reports, 2019)
# No end group written: not given here.
# B1: composite peptide KCF18 (peptide)
# peptide: KCRKEMFKQKLPYSTVYF
# notes: designed 18-residue composite peptide: KCRKEM from TNFR1, FKQKLP from IL-1R, YSTVYF from the IL-6 receptor; also called designed peptide KCF18; source: synthetic peptide (GeneMark, GMbiolab Co., Ltd., Taiwan; solid phase)
# Columns and labels:
# [1] = test system: TNF-α mRNA expression in HMEC-1 cells; test: qPCR of cytokine-induced TNF-α mRNA in HMEC-1; assay type: cell-based, human; settings: qPCR relative to GAPDH
# Experimental: (§1) Human micro-vascular endothelial cells-1 (HMEC-1, from American Type Culture Collection Manassas, USA) was cultured in MCDB 131 medium (Sigma, USA) with 15% fetal bovine serum (FBS; Sigma, USA). The medium was supplemented with 1% L-glutamine, 500 µg/ml streptomycin (Biowest, USA), 500 units/ml penicillin (Biowest, USA), 1 μg/ml hydrocortisone (Sigma, USA) and 10 ng/ml Epidermal Growth Factor (ProSpec, USA). The human acute monocytic leukemia cells (THP-1 cells) obtained from the Bioresource Collection and Research Center (Hsinchu, Taiwan) were cultivated in the RPMI-1640 medium (Invitrogen, USA) with 10% FBS. THP-1 were differentiated to macrophage by […] Phorbol 12-myristate 13-acetate (PMA; Sigma, USA) for 24 hours before peptides treatment.
# (§2) Cells were grown to confluence in 6-cm^2 culture plates. Peptides were incubated with TNF-α (20 ng/ml) for 1 h and then treated the cells for 4 h. […] An aliquot (5 µg) of purified RNA was reverse transcribed into first-strand complementary DNA (cDNA) with a 2720 Thermal Cycler (Applied Biosystems, Grand Island, NY, USA), 200 U/μl M-MLV reverse-transcriptase (Invitrogen) and […] oligo(dT)-adapter primers (Invitrogen) in a 20 μl reaction mixture. […] Quantitation of gene expression was conducted relative to GAPDH expression levels.
# [2] = test system: TNF-α mRNA expression in THP-1 cells; test: qPCR of cytokine-induced TNF-α mRNA in THP-1; assay type: cell-based, human; settings: qPCR relative to GAPDH; TNF-α blocking antibody 1 μg/ml, peptide 500 nM; three independent experiments (Figure S6A)
# Experimental: as §1, §2
# [3] = test system: TNF-α secretion in THP-1 cells; test: ELISA of IL-1β-induced TNF-α secretion in THP-1; assay type: cell-based, human
# Text: In addition, the decline in cytokine–receptor interactions might suppress cytokine mRNA expression and cytokine production in endothelial cells and monocytes. Treatment with KCF18 suppressed TNF-α mRNA expression following cytokines TNF-α, IL-1β and IL-6 stimulation (Fig. 6). To assess the efficacy of KCF18, we performed the RT-qPCR in THP-1 and HMEC-1 cells and ELISA assay for detecting TNF-α secretion including a TNF-α blocking antibody (R&D systems, USA)[57]–[59] as an additional condition in their experiments. […] We further analyze whether the KCF18 could suppress IL-1β induced TNF-α or TNF-α induced IL-1β expressions by ELISA assay (Supporting Figure S7). […] Since TNF-α blocking antibody captures the TNF-α in the conditioned medium, it may interfere the detection of TNF-α by ELISA (Supporting Figure S7). In summary, indeed, KCF18 expresses the ability to reduce cytokines induced TNF-α mRNA and protein expression. […] We also assessed the ability of KCF18 to inhibit TNF-α-mediated p65 nuclear translocation and endothelial ICAM-1 expression (Supporting Figure S8). […]
# Figure S7: Peptide KCF18 and TNF-a antagonist antibody affect the protein expression of cytokine s-induced TNF-α an d I L-1b in TH P-1 cells. TNF-α and IL-1b secretion levels induced by (A) IL-1b and (B) TNF-α in THP-1 were determined using ELISA assays. […]
# [4] = test system: white blood cell infiltration in the peritoneal cavity, BABL/c mice; test: Thioglycollate-induced acute peritonitis model; assay type: in vivo, mouse; settings: counts at 24 h
# Experimental: The animal experiment was used 8- to 10-week-old male BABL/c mice to be the animal model. These mice were purchased from the National Laboratory Animal Breeding and Research Center, Taipei. The mice were housed in a temperature-controlled, light-cycled facility. Peritonitis was induced by an intraperitoneal injection of 4% (w/v) thioglycollate in 1 ml of sterile saline (Sigma–Aldrich, USA). Treatment with saline or peptides (5 mg/kg) was performed 4 h after the administration of thioglycollate by intravenous injection. At 24 h after thioglycollate injection, mice were killed by exposure to CO2, and 5 ml of HBSS was injected into the peritoneal cavity. Cells were obtained by aspirating peritoneal lavage. Differential cell counts were determined using a Hematology Analyzer (KX-21N; Sysmex, USA).
# [5] = test system: TNF-α-induced adhesion of THP-1 to HMEC-1 cells; test: Monocyte binding assay, TNF-α-induced THP-1 adhesion to HMEC-1; assay type: cell-based, human; settings: various concentrations, 1 h pretreatment, then 20 ng/ml TNF-α 18 h; three independent experiments (Fig. 4D, Figure S4)
# Experimental: as §1
# (§3) To perform the test of monocyte adherence to endothelial cells monolayers, the HMEC-1 cell monolayers were cultivated on 24-well plates under serum-starvation condition prior to the monocyte binding assay. The peptides were added to the HMEC-1 cells for one hour prior to the activation by 20 ng/ml TNF-α (Sigma, USA), IL-1β (GOLDBIO, USA) and IL-6 (GOLDBIO, USA) for 18 hours. […] The adhered monocytes were detected and photographed (five images per well) by fluorescent microscopy and the amount of stuck THP-1 cells were counted by the software AlphaImager 2200 (Alpha Innotech, USA).
# [6] = test system: IL-1β-induced adhesion of THP-1 to HMEC-1 cells; test: Monocyte binding assay, IL-1β-induced THP-1 adhesion to HMEC-1; assay type: cell-based, human; settings: various concentrations, 1 h pretreatment, then 20 ng/ml IL-1β 18 h; three independent experiments (Figure S4)
# Experimental: as §1, §3
# [7] = test system: IL-6-induced adhesion of THP-1 to HMEC-1 cells; test: Monocyte binding assay, IL-6-induced THP-1 adhesion to HMEC-1; assay type: cell-based, human; settings: various concentrations, 1 h pretreatment, then 20 ng/ml IL-6 18 h; three independent experiments (Figure S4)
# Experimental: as §1, §3
# IL-6 = molecular target: T1, IL-6 (Homo sapiens, UniProt P05231); test: SPR binding to immobilized IL-6 (Biacore T200); settings: CM5 chip, IL-6 immobilized (approximately 2000 RU), single cycle, 2, 10, 25, 50, 100 μM peptide, 10 μl/min, 25 °C, monovalent binding model, read-out: equilibrium dissociation KD
# T1 construct: purchased GOLDBIO.COM, USA 1110-06
# T1 sequence (P05231 30-212): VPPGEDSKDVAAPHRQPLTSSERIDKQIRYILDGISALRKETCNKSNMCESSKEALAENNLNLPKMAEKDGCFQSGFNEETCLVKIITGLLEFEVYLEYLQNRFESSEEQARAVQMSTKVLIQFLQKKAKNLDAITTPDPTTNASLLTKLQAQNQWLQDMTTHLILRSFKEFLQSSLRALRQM
# Experimental: The recombinant proteins of TNF-α (catalog^#1130-01), IL-1β (catalog^#1110-01B), and IL-6 (catalog^#1110-06) were purchased from the GOLDBIO.COM, USA.
# The peptide KCF18 predicted from molecular docking and MM/PBSA binding free energy calculations were synthesized to confirm whether the peptide can bind to the pro-inflammatory cytokines by using SPR measurements. A Biacore T200 workstation (GE Healthcare, USA) was used for SPR detection. These cytokines (250 μg/ml TNF-α and 400 μg/ml IL-6) were diluted into 10 mM sodium acetate buffer at pH 4.0 and immobilized onto a CM5 sensor chip using amine coupling (EDC-NHS) for 210 secs at a flow rate of 10 μl/min. Approximately 5000 and 2000 response units (RU) of cytokines TNF-α and IL-6 were immobilized on the sensor chip, respectively. The flow channel-1 also treated the EDC-NHS as a reference to reduce the non-specific binding between dextran and peptides. […] The complexes were allowed to associate for 180 secs and then to dissociate for 90 secs. Surfaces were regenerated with an injection of 2 mM MgCl2 at a flow rate of 30 µl/min for 30 secs. A monovalent binding model was used to generate and fit the equilibrium binding curves for each peptide to determine the KD of the binding of peptide KCF18 with the pro-inflammatory cytokines.
# HMEC-1 cells = test: Cell cytotoxic assay (WST-1); assay type: cell-based, human; settings: WST-1, 24 and 48 hours, 0.5 μM to 5 μM peptide (Figure S5)
# Experimental: as §1
# To assess whether the peptide KCF18 is toxic to the endothelial cells, 1 × 10^4 cells were placed into 96-well micro-plates and incubated for 2 hours for adherence. After adhesion, the medium with various concentrations of peptides (0.5 μM to 5 μM) were added to the wells. After 24 and 48 hours, the HMEC-1 cells were washed with Hank’s balanced salt solution and the survivals of HMEC-1 were detected by WST-1 assay kit (Roche, USA). The experiment was assessed in quadruplicate and repeated three times.
# [8] = molecular target: T2, tumor necrosis factor-α (TNF-α), recombinant (UniProt P01375 77-233); test: SPR; Biacore T200; cytokine (about 5000 RU TNF-α, about 2000 RU IL-6) amine-coupled to a CM5 chip; peptide flowed over, single cycle kinetics, KCF18 at 2, 10, 25, 50 and 100 μM, 10 μl/min, 25 °C; steady-state binding isotherm fitted with a monovalent binding model; settings: both partners purified
# T2 construct: TNF-α, bought recombinant protein; The bought product is probably the soluble mature human form (surmise); Amine-coupled to a CM5 chip for SPR; source: bought: GOLDBIO.COM, USA (catalog #1130-01)
# T2 sequence (P01375 77-233): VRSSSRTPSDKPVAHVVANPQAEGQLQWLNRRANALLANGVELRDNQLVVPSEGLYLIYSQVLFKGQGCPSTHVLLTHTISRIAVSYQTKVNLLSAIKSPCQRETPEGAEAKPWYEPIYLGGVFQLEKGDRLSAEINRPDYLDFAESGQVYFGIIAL
# [9] = molecular target: T3, interleukin-6 (IL-6), recombinant (UniProt P05231 30-212); test: as above; settings: both partners purified
# T3 construct: IL-6, bought recombinant protein; The simulations used human IL-6 (PDB 2IL6 with a modelled N-terminus); The bought product is probably mature human IL-6 (surmise); Amine-coupled to a CM5 chip for SPR; source: bought: GOLDBIO.COM, USA (catalog #1110-06)
molecule,measurement,setting,value
"KCAKEMFAQKLPYSAVYF [mKCF18, mutant peptide of KCF18]","TNF-α-induced TNF-α mRNA expression in HMEC-1, antibody comparison (in words)","[1]; TNF-α blocking antibody 1 μg/ml, peptide 500 nM, three independent experiments (Figure S6B)",had no inhibitory effect on TNF-α induced TNF-α mRNA expression in both cells
same,"TNF-α-induced TNF-α mRNA expression in THP-1, antibody comparison (in words)",[2],had no inhibitory effect on TNF-α induced TNF-α mRNA expression in both cells
same,IL-1β-induced TNF-α expression in THP-1 (in words),"[3]; 20 ng/ml IL-1β, pretreatment with peptide, relative to cell lysate concentration, three independent experiments (Figure S7A)",could not inhibit IL-1β induced TNF-α expression
same,"WBC infiltration, comparison of mKCF18 with KCF18 (in words)","[4]; i.v. 4 h after i.p. thioglycollate, n = 3 for each group (Figure S9)",worse than KCF18 peptide
"CPLNGSTVYGHLRHCLSCSGTMVKF [CF25, a random peptide with 25 amino acids, negative control]",effect on TNF-α-induced monocyte binding to HMEC-1 (in words),[5],could not repress cytokine-increased monocyte binding to HMEC-1 cells
same,effect on IL-1β-induced monocyte binding to HMEC-1 (in words),[6],could not repress cytokine-increased monocyte binding to HMEC-1 cells
same,effect on IL-6-induced monocyte binding to HMEC-1 (in words),[7],could not repress cytokine-increased monocyte binding to HMEC-1 cells
same,TNF-α-induced TNF-α mRNA expression in HMEC-1 (in words),"[1]; peptide incubated with TNF-α (20 ng/ml) 1 h, cells treated 4 h, three independent experiments (Fig. 6A)",had no inhibitory effect on TNF-α-induced TNF-α mRNA expression
same,total white blood cell infiltration in the peritoneal cavity (in words),"[4]; 5 mg/kg i.v. 4 h after i.p. 4% thioglycollate, mean ± SEM, n = 5 KCF18, n = 7 CF25, n = 6 control, *P < 0.05 vs control (Fig. 7)",had no potential anti-inflammatory effect
KCRKEMFKQKLPYSTVYF [KCF18],Kd,IL-6,111 µM
same,HMEC-1 cell viability vs control cells (in words),HMEC-1 cells,no important discrepancy was noticed in cell viability among control cells and peptide-treated cells
"IL-1β: recombinant IL-1β (GOLDBIO), used as stimulus [reference compound]",induction of TNF-α secretion in THP-1,[3]; 20 ng/ml IL-1β as stimulus,2 fold
B1,Kd,[8],60.9 µM
same,Kd,[9],112 µM
